Each compound was assayed against T1, apelin receptor (APJ) (Homo sapiens, UniProt P35414) (assay: in vitro apelin agonist activity (methods of Giddings et al., Apelin-13 as positive control)). Conditions: not given.
T1 sequence (P35414 1-380): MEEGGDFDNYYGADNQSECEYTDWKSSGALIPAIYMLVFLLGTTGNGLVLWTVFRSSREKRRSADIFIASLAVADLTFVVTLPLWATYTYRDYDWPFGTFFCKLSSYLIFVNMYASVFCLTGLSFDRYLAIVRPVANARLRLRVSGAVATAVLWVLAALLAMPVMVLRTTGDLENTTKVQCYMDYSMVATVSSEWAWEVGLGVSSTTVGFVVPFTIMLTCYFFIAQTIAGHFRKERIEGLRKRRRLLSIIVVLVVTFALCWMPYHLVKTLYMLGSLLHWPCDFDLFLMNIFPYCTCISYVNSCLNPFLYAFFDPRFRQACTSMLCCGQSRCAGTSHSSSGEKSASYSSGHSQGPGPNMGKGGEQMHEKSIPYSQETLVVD
Type: cell-based
Excerpt: The compounds above were studied for their in vitro activity as apelin agonists using the methods described by Giddings et al. Giddings et al., 2010 Int J High Thro Screen. 1:39-47, the contents of which are hereby incorporated by reference in its entirety.
With COc1cccc(OC)c1-c1cc(C(=O)N[C@@H](CC(C)C)C(=O)O)nn1-c1ccc(F)cc1 [compound 34] the EC50 was under 10 µM.
Work on COc1cccc(OC)c1-c1cc(C(=O)N[C@H](C(=O)NCC(=O)O)C2CCCCC2)nn1-c1ccc(F)cc1 [compound 70] yielded an EC50 of under 10 µM.
Work on COc1cccc(OC)c1-c1cc(C(=O)N[C@H](C(=O)O)C2CCCCC2)nn1C1CCCCC1 [compound 93, (S)-2-Cyclohexyl-2-(1-cyclohexyl-5-(2,6-dimethoxyphenyl)-1H-pyrazole-3-carboxamido)acetic acid] yielded an EC50 of under 10 µM.

Same assay, conditions: apelin agonist activity, Giddings et al. method; read-out: agonist activity (EC50)
Compound COc1cccc(OC)c1-c1cc(C(=O)N[C@H](CC(=O)O)CC(C)C)nn1-c1ccc(F)cc1 [compound 56, (S)-3-(5-(2,6-Dimethoxyphenyl)-1-(4-fluorophenyl)-1H-pyrazole-3-carboxamido)-5-methylhexanoic acid] has an EC50 of under 10 µM.
Work on COc1cccc(OC)c1-c1cc(C(=O)N[C@H](CC(N)=O)CC(C)C)nn1-c1ccc(F)cc1 [compound 65] yielded an EC50 of under 10 µM.
COc1cccc(OC)c1-c1cc(C(=O)N[C@@H](CC(=O)O)CC(C)C)nn1-c1ccc(F)cc1 [compound 67] gave an EC50 of under 10 µM.
COc1cccc(OC)c1-c1cc(C(=O)N[C@H](C(=O)O)C2CCCCC2)nn1-c1ccc(F)cc1 [compound 71, (S)-2-Cyclohexyl-2-(5-(2,6-dimethoxyphenyl)-1-(4-fluorophenyl)-1H-pyrazole-3-carboxamido)acetic acid] was tested, and the EC50 was under 10 µM.
Compound COc1cccc(OC)c1-c1cc(C(=O)N[C@H](CC(=O)NCC(=O)O)CC(C)C)nn1-c1ccc(F)cc1 [compound 77, (S)-2-(3-(5-(2,6-Dimethoxyphenyl)-1-(4-fluorophenyl)-1H-pyrazole-3-carboxamido)-5-methylhexanamido)acetic acid] has an EC50 of under 10 µM.
Compound COc1cccc(OC)c1-c1cc(C(=O)N[C@H](CC(=O)O)CC(C)C)nn1C1CCCCC1 [compound 79, (S)-3-(1-Cyclohexyl-5-(2,6-dimethoxyphenyl)-1H-pyrazole-3-carboxamido)-5-methylhexanoic acid] has an EC50 of under 10 µM.
COc1cccc(OC)c1-c1cc(C(=O)N[C@H](CC(=O)NCC(=O)O)CC(C)C)nn1C1CCCCC1 [compound 81, (S)-2-(3-(1-Cyclohexyl-5-(2,6-dimethoxyphenyl)-1H-pyrazole-3-carboxamido)-5-methylhexanamido)acetic acid] showed an EC50 of under 10 µM.
In the case of COc1cccc(OCc2ccccc2)c1-c1cc(C(=O)N[C@H](CC(=O)O)CC(C)C)nn1-c1ccc(F)cc1 [compound 82, (3S)-3-(5-(2-(Benzyloxy)-6-methoxyphenyl)-1-(4-fluorophenyl)-1H-pyrazole-3-carboxamido)-5-methylhexanoic acid], the EC50 is reported as under 10 µM.
For COC(=O)COc1cccc(OC)c1-c1cc(C(=O)N[C@H](CC(=O)O)CC(C)C)nn1-c1ccc(F)cc1 [compound 86], the EC50 was under 10 µM.
In the case of COc1cccc(OC)c1-c1cc(C(=O)N[C@H](CC(=O)O)CC(C)C)nn1CC1CCCCC1 [compound 95, (S)-3-(1-(Cyclohexylmethyl)-5-(2,6-dimethoxyphenyl)-1H-pyrazole-3-carboxamido)-5-methylhexanoic acid], the EC50 is reported as under 10 µM.
COC(=O)CNC(=O)C[C@H](CC(C)C)NC(=O)c1cc(-c2c(OC)cccc2OC)n(C2CCCCC2)n1 [compound 103, (S)-Methyl 2-(3-(1-cyclohexyl-5-(2,6-dimethoxyphenyl)-1H-pyrazole-3-carboxamido)-5-methylhexanamido)acetate] showed an EC50 of under 10 µM.
COc1cccc(OC)c1-c1cc(C(=O)N[C@H](CC(=O)O)CC(C)C)nn1CC(C)C [compound 118] gave an EC50 of under 10 µM.
For COc1cccc(OCc2ccccc2)c1-c1cc(C(=O)N[C@H](CC(=O)O)CC(C)C)nn1C1CCCCC1 [compound 126, (3S)-3-(5-(2-(Benzyloxy)-6-methoxyphenyl)-1-cyclohexyl-1H-pyrazole-3-carboxamido)-5-methylhexanoic acid], the EC50 was under 10 µM.
COC(=O)CNC(=O)C[C@H](CC(C)C)NC(=O)c1cc(-c2c(OC)cccc2OCc2ccccc2)n(C2CCCCC2)n1 [compound 127, Methyl 2-((3S)-3-(5-(2-(benzyloxy)-6-methoxyphenyl)-1-cyclohexyl-1H-pyrazole-3-carboxamido)-5-methylhexanamido)acetate] showed an EC50 of under 10 µM.
COc1cccc(OCc2ccccc2)c1-c1cc(C(=O)N[C@H](CC(=O)NCC(=O)O)CC(C)C)nn1C1CCCCC1 [compound 129, 2-((3S)-3-(5-(2-(Benzyloxy)-6-methoxyphenyl)-1-cyclohexyl-1H-pyrazole-3-carboxamido)-5-methylhexanamido)acetic acid] showed an EC50 of under 10 µM.
COC(=O)CNC(=O)C[C@H](CC(C)C)NC(=O)c1cc(-c2c(OC)cccc2OC)n(CC(C)C)n1 [compound 130, (S)-Methyl 2-(3-(5-(2,6-dimethoxyphenyl)-1-isobutyl-1H-pyrazole-3-carboxamido)-5-methylhexanamido)acetate] gave an EC50 of under 10 µM.
COc1cccc(OCc2ccccc2)c1-c1cc(C(=O)N[C@H](CC(=O)NCc2ccccc2)CC(C)C)nn1C1CCCCC1 [compound 132] gave an EC50 of under 10 µM.
Compound CCCCNC(=O)C[C@H](CC(C)C)NC(=O)c1cc(-c2c(OC)cccc2OCc2ccccc2)n(C2CCCCC2)n1 [compound 133, 5-(2-(Benzyloxy)-6-methoxyphenyl)-N-((S)-1-(butylamino)-5-methyl-1-oxohexan-3-yl)-1-cyclohexyl-1H-pyrazole-3-carboxamide] has an EC50 of under 10 µM.
COc1cccc(OCc2ccccc2)c1-c1cc(C(=O)N[C@H](CC(=O)NCc2ncco2)CC(C)C)nn1C1CCCCC1 [compound 134, 5-(2-(Benzyloxy)-6-methoxyphenyl)-1-cyclohexyl-N-((S)-5-methyl-1-((oxazol-2-ylmethyl)amino)-1-oxohexan-3-yl)-1H-pyrazole-3-carboxamide] was tested, and the EC50 was under 10 µM.
COc1cccc(OCc2ccccc2)c1-c1cc(C(=O)N[C@H](CC(=O)NCC(=O)N(C)C)CC(C)C)nn1C1CCCCC1 [compound 136, 5-(2-(Benzyloxy)-6-methoxyphenyl)-1-cyclohexyl-N-((S)-1-((2-(dimethylamino)-2-oxoethyl)amino)-5-methyl-1-oxohexan-3-yl)-1H-pyrazole-3-carboxamide] gave an EC50 of under 10 µM.
COC(=O)CNC(=O)C[C@H](CC(C)C)NC(=O)c1cc(-c2c(OC)cccc2OC)n(-c2ccc(F)cc2)n1 [compound 137] gave an EC50 of under 10 µM.
Compound CCOC(=O)CCNC(=O)C[C@H](CC(C)C)NC(=O)c1cc(-c2c(OC)cccc2OCc2ccccc2)n(C2CCCCC2)n1 [compound 138, Ethyl 3-((3S)-3-(5-(2-(benzyloxy)-6-methoxyphenyl)-1-cyclohexyl-1H-pyrazole-3-carboxamido)-5-methylhexanamido)propanoate] has an EC50 of under 10 µM.
COc1cccc(OC)c1-c1cc(C(=O)N[C@H](CC(=O)NCc2ncco2)CC(C)C)nn1CC(C)C [compound 140, (S)-5-(2,6-Dimethoxyphenyl)-1-isobutyl-N-(5-methyl-1-((oxazol-2-ylmethyl)amino)-1-oxohexan-3-yl)-1H-pyrazole-3-carboxamide] was tested, and the EC50 was under 10 µM.
Work on CNC(=O)C[C@H](CC(C)C)NC(=O)c1cc(-c2c(OC)cccc2OC)n(CC(C)C)n1 [compound 141, (S)-5-(2,6-Dimethoxyphenyl)-1-isobutyl-N-(5-methyl-1-(methylamino)-1-oxohexan-3-yl)-1H-pyrazole-3-carboxamide] yielded an EC50 of under 10 µM.
For COc1cccc(OC)c1-c1cc(C(=O)N[C@H](CC(=O)NCCO)CC(C)C)nn1CC(C)C [compound 142, (S)-5-(2,6-Dimethoxyphenyl)-N-(1-((2-hydroxyethyl)amino)-5-methyl-1-oxohexan-3-yl)-1-isobutyl-1H-pyrazole-3-carboxamide], the EC50 was under 10 µM.
In the case of CCCCNC(=O)C[C@@H](CC(C)C)NC(=O)c1cc(-c2c(OC)cccc2OC)n(CC(C)C)n1 [compound 153], the EC50 is reported as under 10 µM.
Work on CCCCCCNC(=O)C[C@H](CC(C)C)NC(=O)c1cc(-c2c(OC)cccc2OC)n(CC(C)C)n1 [compound 154, (S)-5-(2,6-Dimethoxyphenyl)-N-(1-(hexylamino)-5-methyl-1-oxohexan-3-yl)-1-isobutyl-1H-pyrazole-3-carboxamide] yielded an EC50 of under 10 µM.

What follows are compounds tested on C57BL/6 mice (assay: in vivo blood pressure lowering activity, non-invasive blood pressure and heart rate after IP injection). Conditions: Apelin-13 at 0.4 nmol/kg.
Procedure: The compounds were also assayed for blood pressure activity using C57BL/6 mice and the procedure described by Tatemoto et al. The novel peptide apelin lowers blood pressure via a nitric oxide-dependent mechanism. Regul Pept. 2001; 99: 87-92. […] Studies have been published citing reductions in blood pressure occur following peptide apelin administration. Apelin-13 was used as a positive control. Knockout C57BL/6 mice lacking APJ have cardiovascular deficiencies. […] Charo et al. Am J Physiol Heart Circ Physiol. 2009 November 297(5):[…] et al. J Physiol Biochem. 2007 December; 63(4):359-73. Blood pressure measurements in these species of mice have been reported in the literature. […] et al. Am J Physiol Heart Circ Physiol. 2003 February; 284(2):[…]-74. On the first day of the study, 11 animals were treated with apelin-13, 11 with vehicle alone, and 11 as sham controls. The two later groups were used to determine effects (if any) of the vehicle or injection alone on blood pressure (BP). The experiment was conducted as follows: The animals were restrained and a baseline measurement taken for 5 min. Animals were injected and immediately monitored for 15 minutes. The effect of test agents should be apparent within this time. Tatemoto et al. reported that the effects of Apelin-13 were apparent within minutes. Tatemoto et al. 2001 Immediately following dosing, blood pressure (diastolic, systolic and mean pressure) and heart rate for each animal was recorded for up to 15 minutes using a Kent Scientific CODA Non-Invasive Blood Pressure System. […] On day 2-5 a similar protocol was used in increasing doses. The animals were randomized daily in three groups of 11 to receive either of the two experimental compounds by IP injection. […] At the end of the 5-day dosing period, all animals were humanely euthanized. [table]
Apelin-13 [reference compound] was tested, and the “lowers blood pressure by” value was about 10%.

Reference: patent US10377718B2, “Apelin receptor (APJ) agonists and uses thereof” (Research Triangle Institute, priority 2014, dated 2019)
